Here are results for seven compounds from BindingDB's records for doi:10.1021/acs.biochem.5b00536 (University of Pennsylvania, 2015).

For assay [1], the target named is T1, Acetylpolyamine amidohydrolase (Mycoplana ramosa, UniProt Q48935).
T1 sequence (Q48935 whole entry): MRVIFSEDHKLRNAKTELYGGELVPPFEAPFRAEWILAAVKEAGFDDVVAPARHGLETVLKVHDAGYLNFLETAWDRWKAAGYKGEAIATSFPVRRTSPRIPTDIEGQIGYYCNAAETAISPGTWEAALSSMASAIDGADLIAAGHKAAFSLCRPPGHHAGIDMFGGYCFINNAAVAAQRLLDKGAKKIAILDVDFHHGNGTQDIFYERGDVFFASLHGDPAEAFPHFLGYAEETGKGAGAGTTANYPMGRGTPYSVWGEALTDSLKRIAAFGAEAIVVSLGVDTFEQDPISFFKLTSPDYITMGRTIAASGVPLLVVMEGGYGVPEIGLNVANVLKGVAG
Put plainly: APAH Fluorimetric Assay. Particulars: pH 8.2. Here is the method: (§1) Activity assays were conducted at 25 °C and contained 250 nM APAH (∼50% Zn2+ occupancy), 150 μM substrate, and 0−250 μM inhibitor in assay buffer [25 mM Tris (pH 8.2), 137 mM NaCl, 2.7 mM KCl, and 1 mM MgCl2] in a final volume of 50 μL. […] After 30 min, reactions were quenched by adding 100 μM M344 (Sigma-Aldrich) and the appropriate Fluor-de-Lys developer (BML-KI105, Enzo Life Sciences, 50 μL). Fluorescence was measured after 45 min using a Fluoroskan II plate reader (excitation at 355 nm, emission at 460 nm).

Assay [2] deals with T2, Histone deacetylase 8 (Homo sapiens, UniProt Q9BY41).
T2 sequence (Q9BY41 whole entry): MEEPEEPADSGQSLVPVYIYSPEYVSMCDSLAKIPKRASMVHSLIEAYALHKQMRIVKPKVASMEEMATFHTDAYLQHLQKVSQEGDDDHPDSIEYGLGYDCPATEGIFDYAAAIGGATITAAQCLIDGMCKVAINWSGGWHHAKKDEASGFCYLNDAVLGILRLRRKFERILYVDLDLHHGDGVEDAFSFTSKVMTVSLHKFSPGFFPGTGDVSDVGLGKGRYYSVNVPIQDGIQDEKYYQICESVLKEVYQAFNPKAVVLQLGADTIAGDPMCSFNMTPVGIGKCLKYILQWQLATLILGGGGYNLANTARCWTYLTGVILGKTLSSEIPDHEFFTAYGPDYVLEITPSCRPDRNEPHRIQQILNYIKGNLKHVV
Put plainly: HDAC8 Fluorimetric Assay. Particulars: pH 8.2. Here is the method:
as §1, with “500” for “250”, “HDAC8 enzyme,” for “APAH (∼50% Zn2+ occupancy),”, “Ac-Arg-His-Lys(Ac)-Lys(Ac)-aminomethylcoumarin substrate (BML-KI178, Enzo Life Sciences),” for “substrate,”, “0−10 mM” for “0−250 μM”, “MgCl2; 250 μM tris(2-carboxyethyl)phosphine was added for the assay of thiol compound 2]” for “MgCl2]”, “(BMLKI176,” for “(BML-KI105,”

A word on the IC50: it is the concentration at which inhibition is half-maximal. A lower IC50 goes with greater potency in that assay. As to `NCCCCCCCC(=O)NO`, the IC50 was 150 nM in assay [1] and 2.2 µM in assay [2]. For `NCCCCCC(=O)NO`, in that order: 130 nM and 19 µM. On to `NCCCCC(=O)NO` [5-Amino-N-hydroxypentanamide (4)], for which the values for the half-inhibitory concentration (IC50) in assay [1] and in assay [2] were 170 nM and 120 µM, respectively. `NCCCNCCCCCC(=O)C(F)(F)F` [(3-azaniumylpropyl)(7,7,7-trifluoro-6-oxoheptyl)azanium (1)]: in assay [2], the IC50 is 0.26 µM. In turn, `NCCCNCCCCCC(=O)NO` [(3-azaniumylpropyl)[5-(hydroxycarbamoyl)pentyl]azanium (3)] gave an IC50 in assay [2] of 14 µM. Same read-out and setting: in the case of `NCCCNCCCCCS` [(3-azaniumylpropyl)(5-sulfanylpentyl)azanium (2)] it was 12 µM. On to `NCCCCCCC(=O)NO`, for which the IC50 came to 68 nM in assay [1] and 5.3 µM in assay [2].
